Tests used:
Format in all cases: in vivo
[1] = system: Cowpea Aphid (Aphis craccivora); experiment: Cowpea aphid spray test on potted cowpea plants; conditions: population reduction assessed after 24, 72 and 120 hours, read-out: mortality in comparison with untreated controls
Protocol: If not otherwise specified the test solutions were prepared as follows:
The active compound was dissolved at the desired concentration in a mixture of 1:1 (vol:vol) distilled water: acetone. The test solution was prepared at the day of use and in general at concentrations of ppm (wt/vol).
Potted cowpea plants colonized with 100-150 aphids of various stages were sprayed after the pest population had been recorded. Population reduction was assessed after 24, 72, and 120 hours.

[2] = system: Vetch Aphid (Megoura viciae); experiment: Vetch aphid bean leaf disk microtiter test; conditions: foliar, 144 h, leaf disks sprayed with 2.5 μl, 6 days, read-out: mortality in comparison with untreated controls
Protocol: The active compounds were formulated in 3:1 (vol:vol) water: DMSO with different concentrations of formulated compounds.
Bean leaf disks were placed into microtiterplates filled with 0.8% agar-agar and 2.5 ppm OPUS™. The leaf disks were sprayed with 2.5 μl of the test solution and 5 to 8 adult aphids were placed into the microtiter plates which were then closed and kept at 23±1° C. and 50±5% relative humidity under fluorescent light for 6 days. Mortality was assessed on the basis of vital, reproduced aphids. Aphid mortality and fecundity was then visually assessed.

[3] = system: Silverleaf Whitefly (Bemisia argentifolii, Adult); experiment: Silverleaf whitefly test on sprayed cotton plants; conditions: 72 h, 3 days after treatment, read-out: mortality in comparison with untreated controls
Protocol: (§1) The active compounds were formulated in cyclohexanone as a 10,000 ppm solution supplied in 1.3 ml ABgene® tubes. These tubes were inserted into an automated electrostatic sprayer equipped with an atomizing nozzle and they served as stock solutions for which lower dilutions were made in 1:1 (vol:vol) water: acetone. A nonionic surfactant (Kinetic®) was included in the solution at a volume of 0.01% (v/v).
Cotton plants at the cotyledon stage (one plant per pot) were sprayed by an automated electrostatic plant sprayer equipped with an atomizing spray nozzle. The plants were dried in the sprayer fume hood and then removed from the sprayer. Each pot was placed into a plastic cup and 10 to 12 whitefly adults (approximately 3-5 days […]) were introduced. The insects were collected using an aspirator and 0.6 cm, nontoxic Tygon® tubing (R-3603) connected to a barrier pipette tip. The tip, containing the collected insects, was then gently inserted into the soil containing the treated plant, allowing insects to crawl out of the tip to reach the foliage for feeding. Cups were covered with a reusable screened lid (150-micron mesh polyester screen PeCap from Tetko, Inc.). Test plants were maintained in a growth room at 25° C. and 20-40% relative humidity for 3 days, avoiding direct exposure to fluorescent light (24 hour photoperiod) to prevent trapping of heat inside the cup. Mortality was assessed 3 days after treatment, compared to untreated control plants.

[4] = system: Cotton Aphid (Aphis gossypii, Mixed Life Stages); experiment: Cotton aphid spray test on infested cotton plants; conditions: 120 h, after 5 days, read-out: mortality in comparison with untreated controls
Protocol: as §1
Cotton plants at the cotyledon stage were infested with aphids prior to treatment by placing a heavily infested leaf from the main aphid colony on top of each cotyledon. Aphids were allowed to transfer overnight to accomplish an infestation of 80-100 aphids per plant and the host leaf was removed. The infested plants were then sprayed by an automated electrostatic plant sprayer equipped with an atomizing spray nozzle. The plants were dried in the sprayer fume hood, removed from the sprayer, and then maintained in a growth room under fluorescent lighting in a 24-hr photoperiod at 25° C. and 20-40% relative humidity. Aphid mortality on the treated plants, relative to mortality on untreated control plants, was determined after 5 days.

[5] = system: Green Peach Aphid (Myzus persicae); experiment: Green peach aphid spray test on infested bell pepper plants; conditions: 120 h, after 5 days, read-out: mortality in comparison with untreated controls
Protocol: as §1
Bell pepper plants at the first true-leaf stage were infested prior to treatment by placing heavily infested leaves from the main colony on top of the treatment plants. Aphids were allowed to transfer overnight to accomplish an infestation of 30-50 aphids per plant and the host leaves were removed. The infested plants were then sprayed by an automated electrostatic plant sprayer equipped with an atomizing spray nozzle. The plants were dried in the sprayer fume hood, removed, and then maintained in a growth room under fluorescent lighting in a 24 hour photoperiod at 25° C. and 20-40% relative humidity. Aphid mortality on the treated plants, relative to mortality on untreated control plants, was determined after 5 days.

[6] = system: Orchid thrips (Dichromothrips corbetti); experiment: Orchid thrips petal dip test; conditions: petals dipped, after 72 hours, read-out: mortality in comparison with untreated controls
Protocol: The active compounds were formulated as a 1:1 (vol:vol) water: acetone solution. Surfactant (Alkamuls EL 620) was added at the rate of 0.1% (vol/vol). Vanda orchids petals were cleaned, washed and air dried prior to spraying. Petals were dipped into the test solution for 3 seconds, air dried, placed inside a resealable plastic and inoculated with 20 adults. The treated petals were kept inside the […] room at 28-29° C. and relative humidity of 50-60%. Percent mortality was recorded after 72 hours.

COc1ccc2nc(-c3cccnc3)sc2n1 [I-H4, 5-methoxy-2-(3-pyridyl)thiazolo[5,4-b]pyridine]
≥ 75%: mortality at 500 ppm [1]

CCOCCSc1cccc2nn(-c3cccnc3)cc12 [I-C1, 4-(2-ethoxyethylsulfanyl)-2-(3-pyridyl)indazole]
≥ 75%: mortality at 800 ppm [2] | mortality at 300 ppm [3] | mortality at 500 ppm [1] | mortality at 300 ppm [4] | mortality at 300 ppm [5]

CCOCC[S+]([O-])c1ccc2nn(-c3cccnc3)cc2n1 (centres unmarked) [I-D39, 5-(2-ethoxyethylsulfinyl)-2-(3-pyridyl)pyrazolo[4,3-b]pyridine]
≥ 75%: mortality at 800 ppm [2] | mortality at 300 ppm [3] | mortality at 300 ppm [4] | mortality at 300 ppm [5]

COc1ccc2nc(-c3cccnc3)oc2c1 [I-1, 6-methoxy-2-(3-pyridyl)-1,3-benzoxazole]
≥ 75%: mortality at 500 ppm [1]

COc1ccc2nc(-c3cccnc3)oc2n1 [I-K1, 5-methoxy-2-(3-pyridyl)oxazolo[5,4-b]pyridine]
≥ 75%: mortality at 800 ppm [2] | mortality at 300 ppm [3] | mortality at 500 ppm [1] | mortality at 300 ppm [4] | mortality at 300 ppm [5]

CCOCCSc1ccc2nn(-c3cccnc3)cc2n1 [I-D16, 5-(2-ethoxyethylsulfanyl)-2-(3-pyridyl)pyrazolo[4,3-b]pyridine]
≥ 75%: mortality at 800 ppm [2] | mortality at 300 ppm [4] | mortality at 300 ppm [5]

COc1ccc2nn(-c3cccnc3)cc2n1 [I-D57, 5-methoxy-2-(3-pyridyl)pyrazolo[4,3-b]pyridine]
≥ 75%: mortality at 800 ppm [2] | mortality at 300 ppm [3] | mortality at 500 ppm [1] | mortality at 300 ppm [4] | mortality at 300 ppm [5]

CCOCCSc1ccc2nn(-c3cccnc3)cc2c1 [I-B5, 5-(2-ethoxyethylsulfanyl)-2-(3-pyridyl)indazole]
≥ 75%: mortality at 800 ppm [2] | mortality at 500 ppm [1]

COc1ccc2nn(-c3cccnc3)cc2c1 [I-B4, 5-methoxy-2-(3-pyridyl)indazole]
≥ 75%: mortality at 300 ppm [3]

CC(C)(COc1ccc2nn(-c3cccnc3)cc2n1)S(C)(=O)=O [I-D59, 5-(2-methyl-2-methylsulfonyl-propoxy)-2-(3-pyridyl)pyrazolo[4,3-b]pyridine]
≥ 75%: mortality at 500 ppm [6] | mortality at 800 ppm [2] | mortality at 300 ppm [3] | mortality at 500 ppm [1] | mortality at 300 ppm [4] | mortality at 300 ppm [5]

CCOCCS(=O)(=O)c1ccc2nn(-c3cccnc3)cc2n1 [I-D46, 5-(2-ethoxyethylsulfonyl)-2-(3-pyridyl)pyrazolo[4,3-b]pyridine]
≥ 75%: mortality at 800 ppm [2] | mortality at 300 ppm [3] | mortality at 300 ppm [4] | mortality at 300 ppm [5]

FC(F)(F)COc1ccc2nc(-c3cccnc3)cn2n1 [I-E14, 2-(3-pyridyl)-6-(2,2,2-trifluoroethoxy)imidazo[1,2-b]pyridazine]
≥ 75%: mortality at 800 ppm [2] | mortality at 300 ppm [3] | mortality at 300 ppm [4] | mortality at 300 ppm [5]

Reference: patent publication US20180368404A1, “3-PYRIDYL HETEROBICYCLIC COMPOUND FOR CONTROLLING INVERTEBRATE PESTS” (BASF SE, priority 2014, published 2018)
